This note sets out measurements from patent US7071177B2, “P-(sulfonyl) aryl and heteroarylamines as anti-inflammatory agents” (Syntex (U.S.A.) LLC, priority 2000, dated 2006).

The compound `CS(=O)(=O)CCN(Cc1ccccn1)c1ccc(S(C)(=O)=O)cc1` [1-45, 4-{N,N-[2-(methylsulfonyl)ethyl](pyridin-2-ylmethyl)amino}phenyl methyl sulfone] registered a melting point of 139.5 to 140.5 °C.

In the case of `CCOc1ccc(CN(CCS(C)(=O)=O)c2ccc(S(C)(=O)=O)c(F)c2)cc1` [1-72, (4-ethoxy-benzyl)-(3-fluoro-4-methanesulfonyl-phenyl)-(2-methanesulfonyl-ethyl)-amine], the melting point is 56 to 59 °C.

In turn, `COc1ccc(CNS(=O)(=O)c2ccc(N(CCS(C)(=O)=O)Cc3ccc(C)cc3)cc2)cc1` [2-1, 4-[(2-methylsulfonyl-ethyl)-(4-methyl-benzyl)amino]-N-(4-methoxy-benzyl)-benzenesulfonamide] showed a melting point of 85.7 to 86.6 °C.

Compound `Cc1ccc(CN(CCS(C)(=O)=O)c2ccc(S(N)(=O)=O)cc2)cc1` [2-2, 4-[(2-methylsulfonyl-ethyl)-(4-methyl-benzyl)-amino]-benzenesulfonamide] came in with a melting point of 169.1 to 170 °C.

`CS(=O)(=O)CCN(Cc1ccc(F)cc1F)c1ccc(S(N)(=O)=O)cc1` [2-4, 4-[(2-methylsulfonyl-ethyl)-(2,4-difluorobenzyl)-amino]-benzenesulfonamide] had a melting point of 152.9 to 153.2 °C.
